Assay results from patent US11458083B2, “Cosmetic and/or dermatological composition containing a merocyanine derivative comprising specific polar groups consisting of hydroxyl- and ether-functionalities” (L'OREAL, priority 2011, dated 2022).

How the values were obtained:
Type in all cases: physicochemical
[1] = UV shielding properties: UV spectra in ethanol; parameters: Absorption maximum λmax: unit not given here; settings: UV spectrum in ethanol
Source text: The UV shielding properties of the merocyanine derivatives are investigated by measuring their UV spectra in ethanol. In the following table the investigated absorption maxima (Amax) together with the corresponding A^1%1cm values are listed.

[2] = Acid media stability (HCl 0.1M), UPLC; settings: HCl 0.1M in water/ethanol/isopropanol 50/40/10 (v/v/v), 1 h at 60° C.
Protocol: These solutions could be acidified to check also stability toward acid media for example HCl 0.1M in a water/ethanol/isopropanol 50/40/10 (v/v/v).
(§1) Once the solution prepared, it is placed in an oven at 45° C. for 2 months for stability and 1 h at 60° C. for acidic stress. Then the solution is aliquoted (0.005% w/v in H2O/ACN 50/50) for liquid chromatography analysis to check disappearance or not.
(§2) UPLC Acquity (Waters) with diod array detector eλ (Waters).
(§3) Column: Acquity HSS T3 (Waters), length: 50 mm, Inner diameter: 2.1 mm, particles diameter 1.8 μm. Mobile phase A=ammonium acetate 20 mM, B=Acetonitrile.
(§4) • Flow rate: 0.5 mL/min • T: 20° C. • Detection at UV 383 nm

[3] = Storage (chemical) stability in water/ethanol solution, UPLC; settings: 0.5% in water/ethanol 1/1, 45° C.
Protocol: The chemical stability of the compounds can be assessed in a water/ethanol solution 1/1 with compounds solubilized at 0.5%.
as §1, §2, §3, §4

[4] = Photostability of the UV filters in a formula film exposed to a solar simulator (HPLC); settings: film about 20 μm, UVA dose 42 J/cm^2
Source text: The percentage of residual amount of each UV filter (merocyanine compound and dibenzoylmethane compound) caused by the exposure to a solar simulator of a formula spread in a film having a thickness of about 20 μm was measure. The evaluation was done by HPLC analysis of each UV filter in a solution after extraction of the film, by comparing exposed and non-exposed samples. Solar simulator: Apparatus Oriel […] equipped with a 4 pouces outlet, a 81017 filter and a dichroic mirror. The samples were exposed in horizontal position. The UV exposure was characterized by: • a UVB flux of 0.35-0.45 mW/cm^2 • a UVA flux 16-18 mW/cm^2. Each residual amount of each UV filter was measured by HPLC chromatography with a sensor having diodes bars. About 20 mg of the composition are spread on the surface of a rough melt silica disc. 3 films of composition were exposed to the solar simulator and 3 other films were used as control. The samples were exposed 3 per 3 to the light of the simulator during a sufficient time delivering an UVA dose of 42 J/cm^2. At the end of the exposure, the disc was introduced in a bowl of 600 ml with 10 ml of appropriate solvent (ie generally ethanol). The disc and the bowl were then placed during 5 minutes in an ultrasonic tank.

| A^1%1 cm at absorption maximum [1] | Absorption maximum λmax [1] | Acid media stability 1 h 60° C. (loss) [2] | Storage stability 2 months 45° C. [3] | % of residual Avobenzone after UV exposure ([4]; in composition Example 9 (with 1% merocyanine compound 4)) [%] | % of residual merocyanine compound 4 after UV exposure ([4]; in composition Example 9 (with 2% avobenzone)) [%] | Compound |
| --- | --- | --- | --- | --- | --- | --- |
| 1618 | 386 | – | – | – | – | CCCCC(CC)CNC1=C/C(=C(/C#N)C(=O)NCCO)CCC1 (centres unmarked) [Compound 16] |
| 1644 | 385 | Loss 100% | No loss | – | – | COCCCNC(=O)/C(C#N)=C1\C=C(NCCCOC)CCC1 [Compound 15] |
| 2252 | 381 | – | – | – | – | COCCOCCOC(=O)/C(C#N)=C/C=C/N1CCCCC1 [Compound 5] |
| 1947 | 385 | Loss 4% | No loss | – | – | CCOCCOC(=O)/C(C#N)=C1\C=C(NCCCOC)CCC1 [Compound 25, 2-ethoxyethyl (2Z)-cyano{3-[(3-methoxypropyl)amino]cyclohex-2-en-1-ylidene}ethanoate] |
| 2207 | 385 | – | – | – | – | CCOC(=O)/C(C#N)=C1\C=C(NCCCOC)CCC1 [Compound 14] |
| 2083 | 385 | – | – | – | – | CC(C)COC(=O)/C(C#N)=C1\C=C(NCC(C)O)CCC1 (centres unmarked) [Compound 17] |
| 1965 | 380 | – | – | – | – | CCOCCOC(=O)/C(C#N)=C/C=C/N(CCOC)CCOC [Compound 3] |

Continued, compound first:

| Compound | A^1%1 cm at absorption maximum [1] | Absorption maximum λmax [1] | Acid media stability 1 h 60° C. (loss) [2] | Storage stability 2 months 45° C. [3] | % of residual Avobenzone after UV exposure ([4]; in composition Example 9 (with 1% merocyanine compound 4)) [%] | % of residual merocyanine compound 4 after UV exposure ([4]; in composition Example 9 (with 2% avobenzone)) [%] |
| --- | --- | --- | --- | --- | --- | --- |
| CCCCCCCCOC(=O)/C(C#N)=C/C=C/N(CC)CCO [Compound 18] | 2036 | 385 | – | – | – | – |
| CCOC(=O)/C(C#N)=C/C=C/N(CCOC)CCOC [Compound 1] | 2283 | 380 | – | – | – | – |
| N#C/C(=C\C=C\N1CCCCC1)C(=O)OCC(O)CO (centres unmarked) [Compound 7] | 2467 | 381 | – | – | – | – |
| COc1ccc(C(=O)CC(=O)c2ccc(C(C)(C)C)cc2)cc1 [Avobenzone, 4-(tert-butyl)-4′-methoxydibenzoylmethane, reference compound] | – | – | – | – | 91 | – |
| CCCCOC(=O)/C(C#N)=C/C=C/N(CCO)CCCC [Compound 12] | 2235 | 381 | – | – | – | – |
| COCCOC(=O)/C(C#N)=C/C=C/N(CCOC)CCOC [Compound 2] | 2046 | 380 | – | – | – | – |
| N#C/C(=C\C=C\N1CCOCC1)C(=O)OCC(O)CO (centres unmarked) [Compound 9] | 2414 | 380 | – | – | – | – |
| CCCN(/C=C/C=C(\C#N)C(=O)OCC(O)CO)CCC (centres unmarked) [Compound 23] | 2230 | 381 | – | – | – | – |
| CCOCCOC(=O)/C(C#N)=C/C=C/N1CCCCC1 [Compound 4] | 2568 | 381 | – | – | – | 85 |
| N#C/C(=C\C=C\N1CCCCC1)C(=O)NCCO [Compound 6] | 2530 | 380 | – | – | – | – |
